Experimental data reported in PubChem BioAssay (NCI).
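How tested: cells in 96-well plates exposed to compound for 48 hours at five concentrations. GI50 = concentration required for 50% inhibition of growth. TGI marks complete inhibition of growth.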

Key:
Test in all cases: inhibition of tumour cell growth, NCI panel, 48 h
[1] = test system: SNB-19 CNS
[2] = test system: A498 renal
[3] = test system: NCI-H460 lung
[4] = test system: K-562 leukemia
[5] = test system: SW-620 colon
[6] = test system: OVCAR-8 ovarian
[7] = test system: 786-0 renal
[8] = test system: HCT-116 colon
[9] = test system: CAKI-1 renal
[10] = test system: MCF7 breast
[11] = test system: OVCAR-4 ovarian
[12] = test system: NCI-H23 lung
[13] = test system: HOP-62 NSCLC
[14] = test system: UACC-62 melanoma
[15] = test system: NCI-H522 lung
[16] = test system: MDA-MB-231 breast
[17] = test system: COLO 205 colon
[18] = test system: T-47D breast
[19] = test system: ACHN renal
[20] = test system: IGROV1 ovarian
[21] = test system: CCRF-CEM leukemia
[22] = test system: MDA-MB-435
[23] = test system: RXF 393 renal
[24] = test system: MOLT-4 leukemia
[25] = test system: U251 CNS
[26] = test system: KM12 colon
[27] = test system: SNB-75 CNS
[28] = test system: A549 NSCLC
[29] = test system: SN12C renal
[30] = test system: SF-268 CNS
[31] = test system: SR leukemia
[32] = test system: SK-MEL-5 melanoma
[33] = test system: UACC-257 melanoma
[34] = test system: HT29 colon
[35] = test system: UO-31 renal
[36] = test system: SK-MEL-28 melanoma
[37] = test system: NCI/ADR-RES ovarian
[38] = test system: HL-60(TB) leukemia
[39] = test system: MDA-MB-468 breast
[40] = test system: NCI-H226 lung
[41] = test system: PC-3 prostate
[42] = test system: BT-549 breast
[43] = test system: MALME-3M melanoma
[44] = test system: HOP-92 NSCLC
[45] = test system: M14 melanoma
[46] = test system: HCC-2998 colon
[47] = test system: SF-295 CNS
[48] = test system: TK-10 renal
[49] = test system: EKVX NSCLC
[50] = test system: LOX IMVI melanoma
[51] = test system: HS 578T breast
[52] = test system: SK-MEL-2 melanoma
[53] = test system: HCT-15 colon
[54] = test system: OVCAR-5 ovarian
[55] = test system: OVCAR-3 ovarian
[56] = test system: DU-145 prostate
[57] = test system: SK-OV-3 ovarian
[58] = test system: RPMI-8226 leukemia
[59] = test system: SF-539 CNS

For `CN(C)CCOc1ccc(C(=O)C2[C@H](c3ccc(Cl)cc3)[C@@H](c3ccccc3)NC23C(=O)Nc2ccc(Cl)cc23)cc1` (stereo partly drawn), the GI50 [1] was 15.6 µM, the TGI [1] was 29.2 µM and the GI50 [2] was 14.6 µM. It also gave a TGI [2] of 28.1 µM, a GI50 [3] of 13 µM and a TGI [3] of 26.3 µM. For the same molecule, the GI50 [4] was 13 µM, the TGI [4] was 34.2 µM and the GI50 [5] was 12.3 µM. For the same molecule, the TGI [5] was 25.3 µM, the GI50 [6] was 16.3 µM and the TGI [6] was 31.5 µM. The GI50 [7] was 15 µM, the TGI [7] was 29.2 µM and the GI50 [8] was 12.8 µM. The TGI [8] was 26 µM, the GI50 [9] was 13.4 µM and the TGI [9] was 26.3 µM. The GI50 [10] was 5.71 µM, the TGI [10] was 18.8 µM and the GI50 [11] was 14.4 µM. For the same molecule, the TGI [11] was 29 µM, the GI50 [12] was 16.4 µM and the TGI [12] was 31 µM. It also gave a GI50 [13] of 12.7 µM, a TGI [13] of 26 µM and a GI50 [14] of 15.1 µM. For the same molecule, the TGI [14] was 28.7 µM, the GI50 [15] was 14.8 µM and the TGI [15] was 29.1 µM. It also gave a GI50 [16] of 15.1 µM, a TGI [16] of 28.7 µM and a GI50 [17] of 15.6 µM. It also gave a TGI [17] of 29.3 µM, a GI50 [18] of 14.6 µM and a TGI [18] of 30 µM. For the same molecule, the GI50 [19] was 14.5 µM, the TGI [19] was 27.6 µM and the GI50 [20] was 14.3 µM. The TGI [20] was 28.2 µM, the GI50 [21] was 16.8 µM and the TGI [21] was 34.8 µM. The GI50 [22] was 14.5 µM, the TGI [22] was 28.2 µM and the GI50 [23] was 10.8 µM. For the same molecule, the TGI [23] was 23.6 µM, the GI50 [24] was 12.6 µM and the TGI [24] was 29.6 µM. The GI50 [25] was 15.3 µM, the TGI [25] was 29.3 µM and the GI50 [26] was 13.6 µM. For the same molecule, the TGI [26] was 29 µM, the GI50 [27] was 10.4 µM and the TGI [27] was 24.7 µM. It also gave a GI50 [28] of 14.3 µM, a TGI [28] of 28.9 µM and a GI50 [29] of 13.5 µM. It also gave a TGI [29] of 26.7 µM, a GI50 [30] of 15 µM and a TGI [30] of 33.5 µM. The GI50 [31] was 13.7 µM, the TGI [31] was 29.7 µM and the GI50 [32] was 15.8 µM. The TGI [32] was 29.2 µM, the GI50 [33] was 15.7 µM and the TGI [33] was 30.6 µM. The GI50 [34] was 14.4 µM, the TGI [34] was 28.1 µM and the GI50 [35] was 12.8 µM. The TGI [35] was 25.5 µM, the GI50 [36] was 16.2 µM and the TGI [36] was 29.9 µM. It also gave a GI50 [37] of 16.6 µM, a TGI [37] of 31.4 µM and a GI50 [38] of 11 µM. It also gave a TGI [38] of 28.1 µM, a GI50 [39] of 8.98 µM and a TGI [39] of 22.3 µM. For the same molecule, the GI50 [40] was 15.3 µM, the TGI [40] was 33.1 µM and the GI50 [41] was 15.5 µM. It also gave a TGI [41] of 31.7 µM, a GI50 [42] of 14.4 µM and a TGI [42] of 27.7 µM. It also gave a GI50 [43] of 14.7 µM, a TGI [43] of 29.7 µM and a GI50 [44] of 8.92 µM. The TGI [44] was 22.2 µM, the GI50 [45] was 16 µM and the TGI [45] was 29.8 µM. It also gave a GI50 [46] of 13.4 µM, a TGI [46] of 26.9 µM and a GI50 [47] of 16.3 µM. It also gave a TGI [47] of 30.5 µM, a GI50 [48] of 14 µM and a TGI [48] of 27.3 µM. The GI50 [49] was 14.3 µM, the TGI [49] was 28.1 µM and the GI50 [50] was 13.5 µM. The TGI [50] was 26.8 µM, the GI50 [51] was 12.5 µM and the TGI [51] was 34.2 µM. It also gave a GI50 [52] of 15.9 µM, a TGI [52] of 30 µM and a GI50 [53] of 15.2 µM. It also gave a TGI [53] of 28.8 µM, a GI50 [54] of 14.6 µM and a TGI [54] of 27.8 µM. It also gave a GI50 [55] of 14.2 µM, a TGI [55] of 29.9 µM and a GI50 [56] of 15.9 µM. For the same molecule, the TGI [56] was 30.2 µM, the GI50 [57] was 14.3 µM and the TGI [57] was 27.7 µM. For the same molecule, the GI50 [58] was 18.6 µM, the TGI [58] was 43.4 µM and the GI50 [59] was 14.7 µM. It also gave a TGI [59] of 27.8 µM.
